Consider 38 compounds from ChEMBL document CHEMBL1201862, “PubChem BioAssay data set” (2004).

Calls of active or inactive are those of the source. For most assays here, no stated cut-off is given here; in the data, actives have a measured EC50 and inactives only a lower limit.

A short description of test [1]: Luminescence Cell-Based Dose Confirmation HTS to Identify Inhibitors of Platelet Dense Granule Release. [Related pubchem assays: 1663 (Primary HTS), 1678 (Summary of Project)]. In kind it is functional.
Test [2] addresses Luciferin 4-monooxygenase (Photinus pyralis, UniProt P08659). The experiment in a line: inhibition of purified Photinus pyralis luciferase – biochemical, luminescence, dose response (AID 1891).
A short description of test [3]: Luminescence Cell-Based Dose Confirmation HTS to Identify Activators of 5'UTR Stem-Loop Driven Alpha-Synuclein mRNA Translation in H4 Neuroglioblastoma Cells. [Related pubchem assays: 1829 (Project Summary), 1814 (Primary HTS)]. In kind it is functional.
The subject of the next test is H4. As to the kind of experiment: Luminescence Cell-Based Dose Response HTS to Identify Activators of 5'UTR Stem-Loop Driven Prion Protein mRNA Translation in H4 Neuroglioblastoma Cells. [Related pubchem assays: 1829 (Project Summary), 1814 (Primary HTS)]. The note with it: Homo sapiens. The test is classed as functional.
Test [4] is described as follows: Luminescence Cell-Based Dose Response HTS to Identify Activators of Luciferase Translation or Activity in H4 […] Cells. [Related pubchem assays: 1829 (Project Summary), 1814 (Primary HTS)]. In kind it is functional.
The target in test [5] is T1, Corticotropin-releasing factor receptor 2/Corticotropin-releasing factor-binding protein (Homo sapiens, UniProt P24387+Q13324).
T1 sequence (Q13324 whole entry): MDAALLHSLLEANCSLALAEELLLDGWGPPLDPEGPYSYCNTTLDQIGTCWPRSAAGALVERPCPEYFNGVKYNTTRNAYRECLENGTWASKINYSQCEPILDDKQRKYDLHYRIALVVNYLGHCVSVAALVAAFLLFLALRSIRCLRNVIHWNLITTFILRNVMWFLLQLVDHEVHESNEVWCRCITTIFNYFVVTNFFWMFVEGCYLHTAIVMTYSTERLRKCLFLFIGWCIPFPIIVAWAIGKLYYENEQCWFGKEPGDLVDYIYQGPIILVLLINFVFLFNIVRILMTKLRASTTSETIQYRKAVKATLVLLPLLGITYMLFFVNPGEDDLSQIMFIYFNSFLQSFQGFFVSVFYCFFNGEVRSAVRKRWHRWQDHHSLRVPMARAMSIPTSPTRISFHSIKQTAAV
T1 sequence (P24387 whole entry): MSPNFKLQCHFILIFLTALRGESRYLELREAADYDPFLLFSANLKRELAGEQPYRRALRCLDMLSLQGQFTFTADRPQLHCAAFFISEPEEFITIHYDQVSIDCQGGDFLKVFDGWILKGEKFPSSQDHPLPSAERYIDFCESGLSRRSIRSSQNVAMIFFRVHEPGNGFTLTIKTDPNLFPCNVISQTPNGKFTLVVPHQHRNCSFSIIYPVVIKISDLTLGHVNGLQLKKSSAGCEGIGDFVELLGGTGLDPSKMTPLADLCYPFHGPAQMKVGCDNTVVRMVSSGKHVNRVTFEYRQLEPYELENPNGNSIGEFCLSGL
The experiment in a line: activators of CRF receptor 2 with binding protein – uHTS hits, confirmation (AID 602473). The test is classed as functional. The note with it: read-out: EC50_Mean.

In test [6] the target is T1, Corticotropin-releasing factor receptor 2/Corticotropin-releasing factor-binding protein. The experiment in a line: Dose Response confirmation of uHTS hits for small molecule antagonists of the CRF-binding protein and CRF-R2 receptor complex. In kind it is functional. The note with it: read-out: IC50_Mean.
Another test has as its system H9c2. The experiment in a line: cells. The test is classed as functional, cell-based. The note with it: Rattus norvegicus, H9c2, Myocardium.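 Further: confirmatory concentration-response retest of ultra-high-throughput screening hits for modulation of myocardial damage; cell death induced by hydrogen peroxide oxidative stress; compound pretreatment for 60 min then peroxide exposure for 2 h; potency is for protecting the cells against peroxide damage rather than for killing them.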
In test [7] the target is T2, RNA-binding protein pos-1 (Caenorhabditis elegans, UniProt G5EF15).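 Further: purified POS-1 fused to maltose binding protein made in E. coli; potency of compounds blocking POS-1 binding to fluorescent RNA.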
T2 sequence (G5EF15 whole entry): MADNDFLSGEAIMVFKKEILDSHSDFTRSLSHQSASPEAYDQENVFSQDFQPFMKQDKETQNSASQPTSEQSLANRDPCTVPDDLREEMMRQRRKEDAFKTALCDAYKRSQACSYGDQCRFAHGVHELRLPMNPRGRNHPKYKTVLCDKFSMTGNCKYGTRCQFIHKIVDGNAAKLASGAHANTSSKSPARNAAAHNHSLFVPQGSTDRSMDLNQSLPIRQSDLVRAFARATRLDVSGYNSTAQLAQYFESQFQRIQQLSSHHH
As to the kind of experiment: disruptors of C. elegans POS-1 RNA interaction – biochemical, fluorescence polarization, dose response (AID 1964). (In general: Fluorescence polarisation rises when a labelled molecule tumbles more slowly, as on binding a larger partner.)

Chain of Luciferin 4-monooxygenase (P08659 whole entry): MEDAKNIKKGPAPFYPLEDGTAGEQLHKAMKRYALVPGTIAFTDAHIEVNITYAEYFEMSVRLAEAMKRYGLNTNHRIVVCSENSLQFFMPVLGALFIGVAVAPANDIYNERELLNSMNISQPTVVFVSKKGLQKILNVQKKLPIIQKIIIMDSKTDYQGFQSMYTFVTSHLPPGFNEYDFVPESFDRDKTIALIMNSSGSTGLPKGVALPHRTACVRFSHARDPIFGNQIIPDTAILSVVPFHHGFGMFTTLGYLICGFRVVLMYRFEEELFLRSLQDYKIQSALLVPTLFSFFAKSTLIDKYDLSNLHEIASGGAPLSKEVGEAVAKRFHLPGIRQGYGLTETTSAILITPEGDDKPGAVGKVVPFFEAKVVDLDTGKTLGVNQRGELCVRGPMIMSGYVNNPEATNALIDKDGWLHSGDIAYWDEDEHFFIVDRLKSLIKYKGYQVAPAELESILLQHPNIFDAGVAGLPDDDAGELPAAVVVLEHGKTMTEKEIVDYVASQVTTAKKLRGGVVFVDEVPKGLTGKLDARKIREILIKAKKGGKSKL

In the case of `Cc1nc2sccn2c(=O)c1S(=O)(=O)NC(C)c1ccccc1` (configuration not stated), the EC50 in test [1] and in test [2] was > 112 µM (not active) throughout.

`Cn1c(=O)oc2cc(S(=O)(=O)NC3CCN(Cc4ccccc4)CC3)ccc21`: the EC50 in test [1] and in test [2] was > 112 µM (not active) each time.

`O=C(CCNC(=O)C1CCN(S(=O)(=O)c2ccccc2)CC1)NCc1ccc(Cl)c(Cl)c1`: the EC50 in test [1] and in test [2] was > 112 µM (not active) throughout.

`CSC1=NC(C)(C)CC2(C)Nc3ccccc3N12` (configuration not stated): the EC50 (in test [3]; in the test on H4; in test [4]) was > 120 µM (not active) each time.

Regarding `COCCN1CCN(C(=O)c2cc(COc3cc(C)ccc3C)on2)CC1`, the EC50 in test [5] was > 53 µM (inactive). Besides, the IC50 in [6] was > 47.1 µM (inactive).

`CCOc1ccc(C(=O)Nc2nnc(S(=O)(=O)N(C)Cc3ccco3)s2)cc1`: the EC50 is 15.1 µM (active) in [3], 6.04 µM (active) in the test with H4 and 0.162 µM (inconclusive) in test [4].

Consider `COc1ccc([N+]2=C3CCc4ccccc4N3CC2(C)O)cc1` (configuration not stated), for which the EC50 (in test [3]; in the test on H4; in test [4]) was > 120 µM (not active) in each case.

On to `O=C(CSc1nc(-c2ccccc2)cs1)NCCN1C(=O)CSC1=O`, for which the figures for the EC50 (in test [3]; with H4; in [4]) were 6.7 µM (active), 17.9 µM (active) and 31.1 µM (active), respectively.

Regarding `CC(C)(C)c1ccc(C(=O)NCC(=O)OCC(=O)Nc2nc(-c3ccc(F)cc3)cs2)cc1`, the values for the EC50 (in test [3]; in the test with H4; in test [4]) were 19.9 µM (active), 13.5 µM (active) and > 120 µM (not active), respectively.

In the case of `COc1ccc(-c2nn(-c3ccccc3)cc2/C=C(\C#N)S(=O)(=O)c2ccccc2)cc1OC`, the EC50 in [5] was > 53 µM (inactive). The IC50 in test [6] was > 47.1 µM (inactive).

Consider `NC(=O)COC(=O)c1cccc(S(=O)(=O)N2CCCCC2)c1`, for which the EC50 in [5] is > 53 µM (inactive). For the same compound, the IC50 in [6] was > 47.1 µM (inactive).

As for `CCOC(=O)COc1cccc2c(=O)n(CC(=O)NCCc3ccccc3)ccc12`, the EC50 is > 120 µM (not active) in [3], 19.5 µM (active) with H4 and > 120 µM (not active) in test [4].

As to `CC(c1nccs1)N(C)C(=O)c1cn(Cc2cccc3ccccc23)nn1` (configuration not stated), the EC50 is 13.2 µM (active) in test [3], 47.3 µM (active) in the test on H4 and 18 µM (active) in [4].

`COc1ccc(C2CC(c3ccccc3OC(=O)/C=C/c3ccccc3)=NN2C(C)=O)cc1` (configuration not stated): the EC50 in test [3] was 14 µM (active); in the test with H4 it was 36.4 µM (active); in [4] it was 18.5 µM (active).

Consider `O=C(Nc1ccc(C(=O)N2CCCC2)cc1)c1ccccc1F`, for which the EC50 in [5] was > 53 µM (inactive). The IC50 in test [6] is > 47.1 µM (inactive).

With `Cc1ccsc1/C=N\NC(=O)CCc1c(C)n[nH]c1C`, the EC50 in test [5] is > 53 µM (inactive). The IC50 in test [6] was > 47.1 µM (inactive).

As to `Cc1ccccc1N(C(=O)c1snc(C(N)=O)c1N)C(C(=O)NCc1ccccc1)c1ccc(O)cc1` (configuration not stated), the IC50 with H9c2 was > 79 µM (inactive).

Regarding `COc1cccc2oc3cc(C#Cc4ccccn4)ccc3c(=O)c12`, the EC50 is > 112 µM (not active) in test [1] and 23.1 µM (active) in [2].

For `N#Cc1ccc(/C=N/NC(=O)CCc2ccc(S(=O)(=O)N3CCOCC3)cc2)cc1`, the EC50 in [1] and in test [2] was > 112 µM (not active) throughout.

For `Cn1c(=O)n(CCc2ccccc2)c(=O)c2c1nc1n2CCN1Cc1ccco1`, in the test with H9c2, the IC50 is 10.5 µM (active).

On to `CCOc1cccc(-c2nn3c(-c4ccco4)nnc3s2)c1`, for which, in the test with H9c2, the IC50 is > 79 µM (inactive).

With `COc1ccc(OC)c(NC(=O)c2ccccc2NS(=O)(=O)c2cccc3cccnc23)c1`, in test [5], the EC50 is > 53 µM (inactive). In [6], the IC50 is < 0.368 µM (active).

Regarding `O=C(O)C1C2C=CC(C2)C1C(=O)NCc1ccccn1` (configuration not stated), the EC50 in test [1] and in test [2] was > 112 µM (not active) each time.

Turning to `Cc1cccc(C(C)C)c1NC(=O)C(C)OC(=O)Cc1nnc(O)c2ccccc12` (configuration not stated), in the test with H9c2, the IC50 was 21.1 µM (active).

Consider `CCC1CCCCN1CCCNC(=O)c1cn(C)c2ccc(S(=O)(=O)N(C)C3CCCCC3)cc2c1=O` (configuration not stated), for which, in test [5], the EC50 was > 53 µM (inactive). Also, the IC50 in test [6] is > 47.1 µM (inactive).

Take `Cc1cc(C)n(Cc2cccc(F)c2)c(=O)c1C#N`: the EC50 in test [1] and in [2] was > 112 µM (not active) each time.

Take `COc1ccccc1C(=O)NC(=O)COC(=O)Cn1[nH]c(=O)c2ccccc2c1=O`: the IC50 in the test with H9c2 is > 79 µM (inactive).

On to `C=CCn1c(SCC(=O)Nc2sc3c(c2C#N)CCC3)nnc1C1COc2ccccc2O1` (configuration not stated), for which the EC50 in test [1] is > 112 µM (not active); in test [2], 39.7 µM (active).

In the case of `CC(C)CC(C(=O)NC1CCCCC1)N(Cc1cccs1)C(=O)c1snc(C(N)=O)c1N` (configuration not stated), the IC50 with H9c2 was > 79 µM (inactive).

`Cc1ccc(Cn2c(SCC(=O)NCC3CCCO3)nc3ccsc3c2=O)cc1` (configuration not stated): the EC50 in test [5] was > 53 µM (inactive). Further, in test [6], the IC50 was > 47.1 µM (inactive).

With `CCC(C)(C)n1nnnc1C(c1cccc(C#N)c1)N1CCN(c2cccc(C)c2C)CC1` (configuration not stated), the EC50 in test [5] is > 53 µM (inactive). In addition, in test [6], the IC50 was > 47.1 µM (inactive).

Regarding `CC(C)N1CC(C(=O)Nc2ccc(Br)c(Cl)c2)CC1=O` (configuration not stated), in [5], the EC50 is > 53 µM (inactive). Further, in [6], the IC50 was > 47.1 µM (inactive).

Turning to `CC(C)(C)n1ncc2c(=O)n(CC(=O)c3ccc(Cl)cc3)cnc21`, the values for the EC50 in [3] and in test [4] were 0.168 µM (active) and 0.115 µM (active), respectively.

As to `O=C(O)c1ccc(/C=N/N2CCN(c3ccccc3)CC2)cc1`, the EC50 in test [3] is 0.687 µM (active); in the test with H4, > 120 µM (not active); in test [4], 19.6 µM (active).

As to `CN(C)c1nc(NCc2ccccc2)nc(SCC(=O)Nc2ccccc2Cl)n1`, the EC50 in test [5] was > 53 µM (inactive). Also, the IC50 in test [6] was > 47.1 µM (inactive).

Consider `Cc1cc(C)cc(N2C(=O)NC(=O)/C(=C\c3cccn3-c3ccc(Cl)cc3)C2=O)c1`, for which, in [7], the EC50 is 84.5 µM (active).

On to `COc1ccc(-c2[nH]ncc2/C=N/NC(=O)c2ccc(Br)cc2)c(OC)c1`, for which the EC50 in [1] was 16.1 µM (active); in [2] it was > 112 µM (not active).

With `COc1ccc(-c2cc(C(=O)Nc3ccccc3N3CCOCC3)c3ccccc3n2)cc1OC`, in the test with H9c2, the IC50 is > 79 µM (inactive).
